Reference: patent publication US20250312416A1, “METHOD AND PHARMACEUTICAL COMPOSITION FOR CARTILAGE REGENERATION” (FAR EASTERN MEMORIAL HOSPITAL, priority 2024, published 2025)

Experiments:
ADSC spheroids = test: Immunofluorescence / confocal microscopy of chondrogenic proteins in ADSC spheroids; format: cell-based, human; conditions: 3D ADSC spheroids, by day 7
Method: Both side views (observed in the x and z plane) and bottom views (observed in the […]) of the images are provided. The scale bar is set at 500 μm.
ADSCs were treated with CXCL14-P, CXCL14-P1, or CXCL14-P2, respectively, at a concentration of 10 ng for 24 hours, after which the medium was replaced with fresh peptide-free medium. On day 7, total RNA was extracted, and real-time PCR analysis was performed to assess the expression levels of key chondrogenic markers, including ACAN, COL2A1, SOX9, and COMP. Gene expression levels were quantified using a LightCycler system (Roche Applied Science), with fold changes calculated relative to untreated control ADSCs. […] Immunofluorescence staining was performed to detect Collagen Type II, SOX9, COMP, and nuclei (Hoechst 33342) in 3D ADSC spheroids (middle panel).
(FIG. 3). […] Moreover, fluorescence confocal microscopy was employed to detect protein patterns and confirm the levels of SOX9, type II collagen, and aggrecan proteins in ADSC spheroids. […] Finally, to investigate whether the CXCR4 receptor of CXCL12/CXCL14 confers chondrogenic signaling during chondrogenesis, we treated ADSCs with a CXCR4 agonist for 7 days.
Extracellular vesicles (EVs) derived from MSCs hold significant potential for repairing damaged tissues. In this study, we explored whether EVs from ADSCs could effectively enhance chondrogenesis and promote cartilage repair. Immunofluorescence staining was used to assess protein levels of Collagen Type II (green), SOX9 (red), COMP (indigo), and Hoechst 33342 (gray) in 3D ADSC spheroids treated with MSC-EVs derived from CXCL14 peptide-primed ADSCs (CXCL14-P-MSC-EVs) at various time points. […] To further explore the cartilage repair functions of EVs from CXCL14-P-treated ADSCs and the encapsulation of the transcription factor SOX9 within MSCs and purified EVs, we performed in vivo studies.

UC-MSCs = test: Real-time PCR of chondrogenic genes in UC-MSCs; format: cell-based; conditions: day 7 of peptide treatment
Text: FIG. 13A provides flowchart illustrating the protocol for peptide treatment and sample collection. […] TGF-beta influenced the expression of chondrogenic genes, including ITGB1 and COMP. […] Treatment with CXCL14/CXCL12 peptides increased GAG content during chondrogenesis in the presence of TGF-beta.
To further validate the role of CXCL14-P and CXCL12-P in regulating chondrogenesis, we compared their effects on another MSC source, umbilical cord-derived mesenchymal stem cells (UC-MSCs). It is important to note that the chondrogenic induction medium contained TGF-β. During chondrogenesis, we observed that the chondrogenic patterns in UC-MSCs were lower than those in ADSCs (FIG. 12). Subsequently, we assessed the chondrogenic potential of UC-MSCs following stimulation with CXCL14-P and CXCL12-P (FIG. 13A). […] Although the expression of chondrogenic genes (FIG. 13B) and GAG content (FIG. 13C) in UC-MSCs was not as pronounced as in ADSCs, the findings confirm that CXCL14-P and CXCL12-P can robustly stimulate chondrogenesis across different MSC sources.

Sequence: ITTKSVSRYRGQEH [CXCL14-P]
- Collagen Type II, SOX9, and COMP expression (ADSC spheroids): increase
- chondrogenic gene expression (COMP, SOX9, COL2A1, ACAN, ITGB1) (UC-MSCs): significantly upregulated
